# Laboratory results: patent US20130337453A1, “EXTRACELLULAR MITOCHONDRIA-BASED SCREENING AND TREATMENT” (TUFTS UNIVERSITY, priority 2010, published 2013)
# “Also recorded” adds a separate entry of the source.
# Key:
# LAD2 cells [1] = experiment: Mitochondria-induced degranulation (beta-hex release) after P2X7 receptor inhibitor pre-treatment; assay type: cell-based, human; conditions: pre-incubation 30 min; beta-hex release 30 min after stimulation
# Procedure: FIG. 10 illustrates that mt component activation of LAD2 cells is P2X7-receptor-dependent. LAD2 cells were pre-treated with P2X7 receptor inhibitor for 30 min and then stimulated with mt components. Different concentration of CpG-ODN [ISOLATED fomyl-peptides?] was used to stimulated LAD2 cells (FIG. 10A). LAD2 cells were treated with a P2X7 receptor inhibitor (FIG. 10B). Beta-hex release was measured 30 mins after stimulation. (n=3; *p<0.05, compared to control). FIG. 10C: live LAD2 cells were stained with stained with Fura-2to measure intracellular calcium changes in response to different concentrations of mt components.
# We then investigated which components from sonicated mitochondria may activate LAD2 cells. ATP has been reported to stimulated human mast cell degranulation (Cohen et al., 2001, Biochemistry 40:6589-97). Therefore, we tested if inhibition of P2X7 receptors, the primary receptor of ATP, can block the effects of mitochondrial components.
# rat mast cells = rat mast cells (Sengoku 2000); cited from earlier work
# [2] = system: peripheral sensory neurons; conditions: Inagaki 2010; cited from earlier work
# mouse model of AD = mouse model of AD (Inagaki 2010); cited from earlier work
# LAD2 cells [3] = experiment: Mitochondrial translocation in live mast cells by confocal microscopy (MitoTracker/LysoTracker); assay type: cell-based, human
# Procedure: LAD2 cells, mast cells derived from a human leukemia patient,were stained with MitoTracker probe (20 nM) for 20 min (middle panels) and LysoTracker DND probe (50 nM) for 30 min (left panels). The cells were then moved to glass bottom culture dishes and observed by TSC SP2 Confocal microscopy. […] The left panels show granules in green. The middle panels represent mitochondria florescence. The right panels represent images merged from the two previous panels. […] Merged images (as described above) of 100 cells randomly selected from each experiment (n=3) are scored by three different operators each time. […] Confocal images from 19 resting cells and 20 degranulating cells (SP 2 μM, 30 min) were randomly selected for analysis. Mitochondria numbers were calculated by ImageJ software using a “mitochondria calculator” plugin.
# (§1) FIG. 2 illustrates that SP-stimulated degranulation and pre-stored TNF secretion is blocked by the mitochondrial fission protein Drp1 inhibitor (MDIVI-1) and Drp1-silencing siRNA. LAD2 cells were treated with MDIVI-1 (40 μM) for 15 min at 37° C. FIG. 2A: Mitochondrial morphology was evaluated by Confocal microscopy in normal LAD2 cells with or without stimulation with SP (2 μM, 30 min, 37° C.). Left panels represent granules; middle panels show mitochondria and the right panels are merged from the previous two. The images shown are representative of more than 40 cells studied. […] LAD2 cells were pretreated with MDIVI-1 (40 μM) for 30 min and then stimulated with SP (1 or 2 μM) for 30 min at 37° C. β-hexosaminidase was measured spectrophotometrically and TNF was measured by ELISA.
# Very few mitochondria could be found in the cell surface region. It is almost impossible to distinguish individual mitochondria from this pool by confocal microscopy. Since the average pH of mast cell secretory granules is 5.5, LysoTracker (left panels) was used as a dye to stain the granules. After SP (2 μM) stimulation for 30 min at 37° C., mast cells underwent rapid degranulation, during which mitochondrial particles translocate throughout the cell (FIG. 1A). […]
# LAD2 cells [4] = experiment: SP-triggered beta-hexosaminidase release (degranulation index); assay type: cell-based, human; conditions: MDIVI-1 40 μM pretreatment; SP 1 and 2 μM, vs SP alone
# Procedure: as §1
# (§2) In order to rule out the possibility that mitochondrial translocation at the cell surface is a bystander effect secondary to cell shape changes during degranulation, the function of Drp1 in mast cell degranulation was investigated. Pretreatment of LAD2 mast cells with the mitochondria] Drp1 inhibitor MDIVI-1 at 40 μM for 15 min at 37° C. (Cassidy-Stone, et al. 2008, Dev. Cell 14:193-204) inhibited mitochondrial translocation (FIG. 2A) despite addition of SP (2 μM for 30 min).
# LAD2 cells [5] = experiment: Pre-stored TNF secretion measured by ELISA; assay type: cell-based, human; conditions: MDIVI-1 40 μM pretreatment; SP 1 and 2 μM, vs SP alone
# Procedure: as §1, §2
# LAD2 cells [6] = experiment: mtDNA (Mt-7s, Mt-CytB) in supernatant fluid by real-time PCR; assay type: cell-based, human; conditions: 10 μM SP, 60 minutes
# Procedure: Cell viability (D) was measured by Tulubin-Blue staining.
# The amount of these two genes, MT-7s DNA and MT-CytB, which are unique to mtDNA and not present in regular human genomic DNA, increased 200 times in SP-stimulated cells (10 μM SP) compared with that in the control as detected by real-time PCR (FIG. 7A). In contrast, genomic DNA for glyceraldehyde 3-phosphate dehydrogenase (GAPDH) is not detected (Hu, VIC TAMRA, data not shown).
# human skin mast cells [7] = experiment: Transmission electron microscopy of mitochondria in skin mast cells; assay type: cell-based
# Text: Mitochondria are shown within white rectangles. White asterisks represent released granular materials. FIG. 5B charts the number of mitochondria visible under electron microscope and FIG. 5C charts the percentage of mitochondria close to the cell surface in each cell as semi-quantitated from high magnification glossy prints by three independent operators. Magnification: 13,800×; (n=3; *p<0.05 compared to control).
# Observations using Transmission Electron Microscopy (TEM) (Theoharides, et al. 1998, Endocrinology 139:403-13) indicate translocation of mitochondria particles to sites of exocytosis. Mitochondria of unstimulated human skin mast cells are located around the cell nucleus and appear intact (FIG. 5A, left side). On the contrary, mitochondria of activated mast cells are much smaller than mitochondria from control cells and are located close to secretory granules undergoing exocytosis (FIG. 5A, right side).
# Drp1 = experiment: Western blot of Drp1 phosphorylation at Ser-616; assay type: cell-based, human; conditions: SP 2 μM for 30 min, LAD2 mast cells
# Text: Antibodies against the Ser-616 phosphorylated form of Drp1 was purchased from Cell Signaling based in Massachusetts, USA.
# To confirm the involvement of Drp1, the State of phosphorylation of Drp1 at the amino acid serine-616 (Ser-616) was investigated through western blot analysis.
# LAD2 cells [8] = experiment: ATP and Cytochrome C in supernatant fluid of stimulated cells; assay type: cell-based, human; conditions: SP-stimulated LAD2 cells
# LAD2 cells [9] = conditions: SP 1 or 2 μM for 30 min (Kulka 2007); cited from earlier work
# [10] = system: isolated cardiac cell mitochondria; conditions: SP concentrations higher than 1 μM; cited from earlier work
# [11] = system: murine mast cell line and isolated murine peritoneal mast cells; conditions: SP 0.01 to 1 μM; not IL-1, IL-3, IL-4, IL-6 or GM-CSF; cited from earlier work
# human skin mast cells [12] = conditions: cited from earlier work
smiles,measurement,setting,value
Cl.Clc1cccc(-c2nnnn2Cc2cccnc2)c1Cl.O [A-438079 hydrochloride hydrate],block of mitochondria-induced degranulation,LAD2 cells [1],40%
"C=CC[C@@H]1/C=C(\C)C[C@H](C)C[C@H](OC)[C@H]2O[C@@](O)(C(=O)C(=O)N3CCCC[C@H]3C(=O)O[C@H](/C(C)=C/[C@@H]3CC[C@@H](O)[C@H](OC)C3)[C@H](C)[C@@H](O)CC1=O)[C@H](C)C[C@@H]2OC [FK506, tacrolimus]",secretion of IgE-induced histamine,rat mast cells,inhibit
same,SP content of peripheral sensory neurons,[2],deplete
same,pruritus,mouse model of AD,prevent
COc1cc(-n2c(=S)[nH]c3ccccc3c2=O)c(Cl)cc1Cl [MDIVI-1],mitochondrial translocation,"LAD2 cells [3]; MDIVI-1 40 μM pretreatment 15 min, 37° C., SP 2 μM for 30 min",inhibited
same,SP-triggered β-hexosaminidase release,LAD2 cells [4],significantly inhibited; also recorded: significant inhibition
same,secretion of pre-stored TNF,LAD2 cells [5],significantly inhibited
"CSCC[C@H](NC(=O)[C@H](CC(C)C)NC(=O)CNC(=O)[C@H](Cc1ccccc1)NC(=O)[C@H](Cc1ccccc1)NC(=O)[C@H](CCC(N)=O)NC(=O)[C@H](CCC(N)=O)NC(=O)[C@@H]1CCCN1C(=O)[C@H](CCCCN)NC(=O)[C@@H]1CCCN1C(=O)[C@@H](N)CCCNC(=N)N)C(N)=O [SP, Substance P]",percentage of LAD2 cells containing mitochondria undergoing translocation,"LAD2 cells [3]; SP 2 μM, 30 min, 37° C., 20% in control cells",about 55%
same,number of mitochondria close to the cell surface,"LAD2 cells [3]; after SP stimulation (2 μM, 30 min), ImageJ count",significant increase
same,"amount of MT-7s DNA and MT-CytB in supernatant, increase vs control",LAD2 cells [6],200 times
same,number of mitochondria visible under the electron microscope,human skin mast cells [7]; SP-activated skin mast cells vs control,increased significantly
same,percentage of mitochondria translocated close to cell surface,"human skin mast cells [7]; SP-activated skin mast cells, control 25%",75%
same,increase in percentage of mitochondria translocated close to cell surface,human skin mast cells [7]; SP-activated vs control (25% to 75%),200%
same,Drp1 phosphorylation at Ser-616,Drp1,Drp1 phosphorylation
same,Cytochrome C (Cyt C) in supernatant fluid,LAD2 cells [8],marked increase
same,ATP level in supernatant fluid,LAD2 cells [8]; dosage-dependent on SP,marked increase
same,degranulation of pre-stored TNF,LAD2 cells [9],activates degranulation
same,rate of oxygen consumption,[10],enhance
same,gene expression and release of cytokines,[11],induce selective gene expression and release of TNF
same,de novo TNF gene expression and release,human skin mast cells [12]; SP 0.3-30 μM (Okayama 1998),selectively induced only de novo TNF gene expression and release
same,histamine and TNF release,human skin mast cells [12]; SP 0.8-100 ηM,induced histamine and de novo synthesized TNF release
